In patent US20240124422A1, “MUTANT PI3K-ALPHA INHIBITORS AND THEIR USE AS PHARMACEUTICALS” (Prelude Therapeutics Incorporated, priority 2022, published 2024):
pIC50: −log10 of the molar value.

System: phosphorylation of AKT on Ser473 as a readout of the PI3K pathway in T-47D (heterozygous PIK3CA H1047R) cells
Assay: PI3K pathway activation assay, pAKT Ser473 HTRF, T-47D cells
Format: cell-based
Conditions: Homo sapiens, T47D, 2 h, two hours of treatment
Description: The inhibitory activity of compounds was evaluated by measuring phosphorylation of AKT on Ser473 as a readout of the PI3K pathway using HTRF (CisBio catalog number: 64AKSPE). These studies were conducted in the T-47D (heterozygous PIK3CA H1047R) and SKBR3 (PIK3CA WT) cell lines. Cells were maintained in a 37° C. incubator at 5% CO2 in the following media: T-47D: RPMI 1640, ATCC© Modification (Gibco, A10491-01) supplemented with 10% v/v FBS (Gibco, 26140-079), 1% penicillin streptomycin (Gibco, 15140-122), and 7.4 ug/mL insulin (MilliporeSigma, I9278); SKBR3: McCoy's 5a (Modified) Medium (Gibco, 16600-082) supplemented with 10% v/v FBS (Gibco, 26140-079). Cells were seeded in 384-well plates at a density of 4,000 cells/well. Compounds dissolved in DMSO were added using a digital dispense (D300E, Tecan) 10-point serial dilution. After two hours of treatment, cells were lysed for thirty minutes and then incubated with detection reagents per HTRF kit material and manufacturer's instructions. Fluorescence signal was measured with a multimode plate reader (Envision 2105, Perkin Elmer). Fluorescent signal was normalized to background and DMSO controls to obtain percent inhibition/activity for each compound.

| pIC50 | Structure (SMILES) |
| --- | --- |
| 5.00 to 6.30 | CC(=O)N1C[C@H]2CN(c3nc4c(C(C)Nc5ccccc5C(=O)O)cc(C)cc4c(=O)n3C)C[C@@H]2C1 (stereo partly drawn) [Example 66, 2-((1-(2-((3aR,6aR)-5-Acetylhexahydropyrrolo[3,4-c]pyrrol-2(1H)-yl)-3,6-dimethyl-4-oxo-3,4-dihydroquinazolin-8-yl)ethyl)amino)benzoic acid] |
| 5.00 to 6.30 | C=CC(=O)N1CCCC1c1nc2c(C(C)Nc3ccccc3C(=O)O)cc(C)cc2c(=O)n1C (centres unmarked) [Example 71, 2-[1-[3,6-Dimethyl-4-oxo-2-(1-prop-2-enoylpyrrolidin-2-yl)quinazolin-8-yl]ethylamino]benzoic acid] |
| 5.00 to 6.30 | CC(Nc1ccccc1C(=O)O)c1cccc2c(=O)n(C)c(N3Cc4ccccc4C3)nc12 (centres unmarked) [Example 72, 2-((1-(2-(Isoindolin-2-yl)-3-methyl-4-oxo-3,4-dihydroquinazolin-8-yl)ethyl)amino)benzoic acid] |

| Structure (SMILES) | pIC50 |
| --- | --- |
| Cc1cc(C(C)Nc2ccccc2C(=O)O)c2nc(N3CC4CC3CN4C(=O)OC(C)(C)C)n(C)c(=O)c2c1 (centres unmarked) [Example 65, 2-((1-(2-(5-(tert-Butoxycarbonyl)-2,5-diazabicyclo[2.2.1]heptan-2-yl)-3,6-dimethyl-4-oxo-3,4-dihydroquinazolin-8-yl)ethyl)amino)benzoic acid] | 5.00 to 6.30 |
| Cc1cc(C(C)Nc2ccccc2C(=O)O)c2nc(C3CCCN3S(=O)(=O)F)n(C)c(=O)c2c1 (centres unmarked) [Example 73, 2-[1-[2-(1-Fluorosulfonylpyrrolidin-2-yl)-3,6-dimethyl-4-oxoquinazolin-8-yl]ethylamino]benzoic acid] | 5.00 to 6.30 |

Same assay, conditions: two hours of treatment, read-out: T47D pAKT IC50

| Structure (SMILES) | pIC50 |
| --- | --- |
| Cc1cc(C(C)Nc2ccccc2C(=O)O)c2nc(N3C[C@@H]4C(NC(=O)OCc5ccccc5)[C@@H]4C3)n(C)c(=O)c2c1 (stereo partly drawn) [Example 59, 2-((1-(2-((1R,5S,6s)-6-(((benzyloxy)carbonyl)amino)-3-azabicyclo[3.1.0]hexan-3-yl)-3,6-dimethyl-4-oxo-3,4-dihydroquinazolin-8-yl)ethyl)amino)benzoic acid] | 5.00 to 6.30 |
| Cc1cc(C(C)Nc2ccccc2C(=O)O)c2nc(N3C[C@@H]4C(NC(=O)OCC(F)(F)F)[C@@H]4C3)n(C)c(=O)c2c1 (stereo partly drawn) [Example 60, 2-((1-(3,6-dimethyl-4-oxo-2-((1R,5S,6s)-6-(((2,2,2-trifluoroethoxy)carbonyl)amino)-3-azabicyclo[3.1.0]hexan-3-yl)-3,4-dihydroquinazolin-8-yl)ethyl)amino)benzoic acid] | 5.00 to 6.30 |
| Cc1cc(C(C)Nc2ccccc2C(=O)O)c2nc(N3C[C@@H]4C(NC(=O)OCCN5CCOCC5)[C@@H]4C3)n(C)c(=O)c2c1 (stereo partly drawn) [Example 61, 2-((1-(3,6-dimethyl-2-((1R,5S,6s)-6-(((2-morpholinoethoxy)carbonyl)amino)-3-azabicyclo[3.1.0]hexan-3-yl)-4-oxo-3,4-dihydroquinazolin-8-yl)ethyl)amino)benzoic acid] | 5.00 to 6.30 |
| COc1ccc(OC(=O)NC2[C@H]3CN(c4nc5c(C(C)Nc6ccccc6C(=O)O)cc(C)cc5c(=O)n4C)C[C@@H]23)cc1 (stereo partly drawn) [Example 62, 2-((1-(2-((1R,5S,6s)-6-(((4-methoxyphenoxy)carbonyl)amino)-3-azabicyclo[3.1.0]hexan-3-yl)-3,6-dimethyl-4-oxo-3,4-dihydroquinazolin-8-yl)ethyl)amino)benzoic acid] | 5.00 to 6.30 |
| Cc1cc(C(C)Nc2ccccc2C(=O)O)c2nc(N3C[C@@H]4C(NC(=O)OC5CC5)[C@@H]4C3)n(C)c(=O)c2c1 (stereo partly drawn) [Example 63, 2-((1-(2-((1R,5S,6s)-6-((cyclopropoxycarbonyl)amino)-3-azabicyclo[3.1.0]hexan-3-yl)-3,6-dimethyl-4-oxo-3,4-dihydroquinazolin-8-yl)ethyl)amino)benzoic acid] | 5.00 to 6.30 |
| Cc1cc(C(C)Nc2ccccc2C(=O)O)c2nc(N3C[C@@H]4[C@H](C3)[C@H]4NC(=O)OCC3CCCO3)n(C)c(=O)c2c1 (stereo partly drawn) [Example 64, 2-((1-(3,6-dimethyl-4-oxo-2-((1R,5S,6s)-6-((((tetrahydrofuran-2-yl)methoxy)carbonyl)amino)-3-azabicyclo[3.1.0]hexan-3-yl)-3,4-dihydroquinazolin-8-yl)ethyl)amino)benzoic acid] | 5.00 to 6.30 |
